From patent publication US7541463B2, “Sulfur-containing naphthalimide derivatives” (East China University of Science and Technology, priority 2003, dated 2009)
“Also recorded” adds a separate entry of the source.

Legend:
[1] = Body weight and deaths of S-180 bearing mice; type: in vivo; details: 75 mg/kg i.v, injected twice (Day 1 and Day 4)
S-180 sarcoma [2] = assay: In vivo tumor growth inhibition, S-180 sarcoma in mice; details: 75 mg/kg i.v, injected twice (Day 1 and Day 4)
[3] = system: human lung adenocarcinoma cell A-549; assay: Growth inhibition of A-549 cells, SRB protein staining assay; type: cell-based; details: read-out: Growth inhibition effect to A-549 cell strain; for inhibition at 100 µM: A549, 10^−4 M; for inhibition at 10 µM: A549, 10^−5 M; for inhibition at 1 µM: A549, 10^−6 M; for inhibition at 0.1 µM: A549, 10^−7 M; for inhibition at 0.01 µM: A549, 10^−8 M
Protocol: (§1) The cell growth inhibition of mice leukemia cell P388 was evaluated by MTT (microculture tetrozolium) assay, while the cell growth inhibition of human lung adenocarcinoma cell A-549 was evaluated by SRB (Sulforhodamine B) protein staining assay.
(§2) The procedure of SRB assay was as follows: appropriate amount of cells in log phase were seeded in 96-well plates according to the growing rate (90 ul/well). After cultured for 24 h, cells were exposed to serial dilutions of drugs in triplicate (10 ul/well). In addition, control wells of normal saline in corresponding concentrations and zeroing wells without cell were set. The cells were incubated in 5% CO2 humidified incubator at 37° C. After 72 h, the medium was removed and cells were fixed with cold 10% trichloric acid (TCA) at 4° C. for 1 h. The plates were washed with distilled water 5 times, and stained in room temperature with 4 mg/ml SRB (Sigma, diluted with 1% glacial acetic acid, 100 ul/well) for 15 minutes after air drying. SRB was then washed with 1% acetic acid 5 times. Plates were dried, followed by adding 150 ul/well Tris solution. Absorbance was measured at […] using a multiwell spectrophotometer. The inhibition effect of the compounds in test (percentage of growth inhibition) was calculated for each well: % inhibition=(A540control cells−A540treated cells)/A540control cells×100%.
(§3) The cell lines used were mice leukemia cell P388, human leukemia cell MOLT-4, human lung adenocarcinoma cell A-549, human gastric adenocarcinoma SGC-7901, human hepatocellular carcinoma BEL-7402 and human embryonal fibroblast WI-38 (commerially available from ATCC).
(§4) The exposure time to compounds was 48 h-72 h.

[4] = system: human leukemia cell MOLT-4; assay: Growth inhibition of MOLT-4 cells (MTT or SRB assay); type: cell-based; details: read-out: Growth inhibition effect to MOLT-4 cell strain; for inhibition at 100 µM: 10^−4 M; for inhibition at 10 µM: 10^−5 M; for inhibition at 1 µM: 10^−6 M; for inhibition at 0.1 µM: 10^−7 M; for inhibition at 0.01 µM: 10^−8 M
Protocol: (§5) The procedure of MTT assay was as follows: appropriate amount of cells in log phase were seeded in 96-well plates (6000 cells/well, 15000 cells/well, 90ul/well) according to the growing rate. After cultured for 24 h, cells were exposed to serial dilutions of drugs in triplicate (10 ul/well). In addition, wells without cell, and wells without cell but with serial dilutions of drugs in case of using a colored-drug were set for zeroing. Then, the cells were cultured in 5% CO2 humidified incubator at 37° C. for 48 h. After treatment of drugs for 48 h, 20ul MTT (Sigma) which was diluted by normal saline to the concentration of 5 mg/ml was added to each well, 50ul/well 10%SDS-5% isobutanol-0.01% mol/LHCl was added after 4 h. After cultured overnight, absorbance was measured at 570 nm using a multiwell spectrophotometer. The inhibition effect of the compounds in test (percentage of growth inhibition) was calculated for each well: % inhibition=(OD570control cells−OD570treated cells)/OD570control cells×100%.
as §2
(§6) The methods used were MTT assay or SRB assay.
as §3, §4

[5] = system: human gastric adenocarcinoma SGC-7901; assay: Growth inhibition of SGC-7901 cells (MTT or SRB assay); type: cell-based; details: read-out: Growth inhibition effect to SGC-7901 cell strain; for inhibition at 100 µM: 10^−4 M; for inhibition at 10 µM: 10^−5 M; for inhibition at 1 µM: 10^−6 M; for inhibition at 0.1 µM: 10^−7 M; for inhibition at 0.01 µM: 10^−8 M
Protocol: as §5, §2, §6, §3, §4

[6] = system: human hepatocellular carcinoma BEL-7402; assay: Growth inhibition of BEL-7402 cells (MTT or SRB assay); type: cell-based; details: read-out: Growth inhibition effect to BEL-7402 cell strain; for inhibition at 100 µM: 10^−4 M; for inhibition at 10 µM: 10^−5 M; for inhibition at 1 µM: 10^−6 M; for inhibition at 0.1 µM: 10^−7 M; for inhibition at 0.01 µM: 10^−8 M
Protocol: as §5, §2, §6, §3, §4

mice leukemia cell P388 = assay: Growth inhibition of P388 cells, MTT assay; type: cell-based; details: Mus musculus, read-out: Growth inhibition effect to P388 cell strain; for inhibition at 100 µM: 10^−4 M; for inhibition at 10 µM: 10^−5 M; for inhibition at 1 µM: 10^−6 M; for inhibition at 0.1 µM: 10^−7 M; for inhibition at 0.01 µM: 10^−8 M
Protocol: as §1, §5, §3, §4

S-180 sarcoma [7] = assay: In vivo tumor growth inhibition, S-180 sarcoma in mice; details: i.p. injection
Protocol: S-180 sarcoma developed for 7-11 days and in good growth trend was homogenated into cell suspension. The cell suspension was inoculated subcutaneously into right armpit of female KM mice (18˜22 g) (about 1.0−2.5×10^6 cells/mouse). After 24 h, the mice were grouped in random with compounds administrated by i.p. injection. From the next day on, the mice were given serial dosages. After treatment, animals were killed, and solid tumors were removed and weighed after the body weight were weighed. The inhibition rate was calculated as follows, and T-test was carried out: [(Average tumor weight of NS group−Average tumor weight of test group)/Average tumor weight of NS group]×100%.

Compound	melting point [°C]	inhibition at 100 µM [3] [%]	inhibition at 10 µM [3] [%]	inhibition at 1 µM [3] [%]	inhibition at 0.1 µM [3] [%]	inhibition at 0.01 µM [3] [%]	inhibition at 100 µM [4] [%]	inhibition at 10 µM [4] [%]	inhibition at 1 µM [4] [%]	inhibition at 0.1 µM [4] [%]	inhibition at 0.01 µM [4] [%]	inhibition at 100 µM [5] [%]	inhibition at 10 µM [5] [%]	inhibition at 1 µM [5] [%]	inhibition at 0.1 µM [5] [%]	inhibition at 100 µM (mice leukemia cell P388) [%]	inhibition at 10 µM (mice leukemia cell P388) [%]	inhibition at 1 µM (mice leukemia cell P388) [%]	inhibition at 0.1 µM (mice leukemia cell P388) [%]	inhibition at 0.01 µM (mice leukemia cell P388) [%]	also measured
O=c1[nH]cc(F)c(=O)[nH]1 [5-FU]																					Weight of mice (g) Day 7 [1]: 20.7 g; Tumor growth inhibition % (S-180 sarcoma [2]): 96.9%; Weight of tumor (g) mean ± SD (S-180 sarcoma [2]): 0.05 ± 0.04 g
CCCCn1c(=O)c2ccc3sc4ccccc4c4ccc(c1=O)c2c34 [compound 1, N-butyl benzo[k, l]thioxanthene-3,4-dicarboximide]	185 to 186	34.4	0	0	0	0	100	98.5	97.7	77.4	1.1	87.5	56.2	46	21.4	51.7	10.2	6.4	2.2	4.3	inhibition at 0.01 µM [5]: 9.8%; inhibition at 100 µM [6]: 70.1%; inhibition at 10 µM [6]: 76.9%; inhibition at 1 µM [6]: 67%; inhibition at 0.1 µM [6]: 3.7%; inhibition at 0.01 µM [6]: 6.6%
CN(C)CCn1c(=O)c2ccc3sc4ccccc4c4ccc(c1=O)c2c34 [compound 2, N-(N′,N′-dimethylaminoethyl)benzo[k, l]thioxanthene-3,4-dicarboximide]	212 to 213	91.3	90.2	75.1	50.2	16.9	100	100	97.7	42.3	0	96.2	88	37.8	28.5	99.9	78.9	22.2	7.7	10.1	inhibition at 0.01 µM [5]: 0.8%; inhibition at 100 µM [6]: 95.1%; inhibition at 10 µM [6]: 90.7%; inhibition at 1 µM [6]: 72.9%; inhibition at 0.1 µM [6]: 24.9%; inhibition at 0.01 µM [6]: 14.2%

The next lines start with results.

melting point [°C]	Compound	inhibition at 100 µM [3] [%]	inhibition at 10 µM [3] [%]	inhibition at 1 µM [3] [%]	inhibition at 0.1 µM [3] [%]	inhibition at 0.01 µM [3] [%]	inhibition at 100 µM [4] [%]	inhibition at 10 µM [4] [%]	inhibition at 1 µM [4] [%]	inhibition at 0.1 µM [4] [%]	inhibition at 0.01 µM [4] [%]	inhibition at 100 µM [5] [%]	inhibition at 10 µM [5] [%]	inhibition at 1 µM [5] [%]	inhibition at 0.1 µM [5] [%]	inhibition at 100 µM (mice leukemia cell P388) [%]	inhibition at 10 µM (mice leukemia cell P388) [%]	inhibition at 1 µM (mice leukemia cell P388) [%]	inhibition at 0.1 µM (mice leukemia cell P388) [%]	inhibition at 0.01 µM (mice leukemia cell P388) [%]	also measured
202 to 203	CN(C)CCCn1c(=O)c2ccc3sc4ccccc4c4ccc(c1=O)c2c34 [compound 4, N-(N′, N′-dimethylaminopropyl)benzo[k, l]thioxanthene-3,4-dicarboximide]	80.3	92.9	73.5	33.4	17.3	100	99.7	93.9	22.3	0	94.5	91.8	39.1	0.2	100	100	23.1	11	16.2	inhibition at 0.01 µM [5]: 13.8%; inhibition at 100 µM [6]: 94.6%; inhibition at 10 µM [6]: 95%; inhibition at 1 µM [6]: 50.7%; inhibition at 0.1 µM [6]: 24.3%; inhibition at 0.01 µM [6]: 17.9%
229 to 230	CN(C)CCN1C(=O)c2cccc3c2c(cc2nc(-c4cccc([N+](=O)[O-])c4)sc23)C1=O [compound 7, N-(N′,N′-dimethylaminoethyl)-4H, 6H-9-m-nitrophenyl-benzo[de]thiazol[5,4-g]isoquinoline4,6-diketone]	89.1	89	72.3	71.3	52	95.1	99.2	100	13.3	0	96.4	95.1	67	6.9	98.7	74.6	47.9	15.8	18	inhibition at 0.01 µM [5]: 3.4%; inhibition at 100 µM [6]: 96.9%; inhibition at 10 µM [6]: 95.8%; inhibition at 1 µM [6]: 80.6%; inhibition at 0.1 µM [6]: 33.1%; inhibition at 0.01 µM [6]: 17%; activity against mice S180 sarcoma (in words) (S-180 sarcoma [7]; listed as C7): not potent; also recorded: active against S180 sarcoma, but weaker than C16
216 to 217	COc1ccc(-c2nc3cc4c5c(cccc5c3s2)C(=O)N(CCN(C)C)C4=O)cc1 [compound 9, N-(N′,N′-dimethylaminoethyl)-4H, 6H-9-p-methoxy phenyl-benzo[de]thiazol[5,4-g]isoquinoline-4,6-diketone]	94.9	93.9	94.5	69.4	44.5										95.1	92.3	78.2	15.2	21	activity against mice S180 sarcoma (in words) (S-180 sarcoma [7]; listed as C9): not potent; also recorded: active against S180 sarcoma, but weaker than C16
178 to 179	CN(C)CCN1C(=O)c2cccc3c2c(cc2nnsc23)C1=O [compound 11, 5-(N′,N′-dimethylaminoethyl)-4H, 6H-benzo[de]-1,2,3,-thiadiazol[5,4-g]isoquinoline-4,6-diketone]	95.7	93.7	94.5	76.6	20.2	100	100	100	82.8	0	96.5	97.1	38.9	16.7	98.7	92.7	42.2	13.8	10.7	inhibition at 0.01 µM [5]: 1.1%; inhibition at 100 µM [6]: 95.7%; inhibition at 10 µM [6]: 90.9%; inhibition at 1 µM [6]: 74%; inhibition at 0.1 µM [6]: 20.1%; inhibition at 0.01 µM [6]: 24.4%
